Reference: patent US4250259A, “Microbiological production of ketones from C3 -C6 secondary alcohols” (priority 1979, dated 1981)

How the values were obtained:
[1] = system: Methylobacter capsulatus Y (NRRL B-11,201); assay: sec-alcohols to ketones by resting cell suspensions; format: cell-based
Protocol: (§1) The pH of the nutrient medium was adjusted to 7.0 by the addition of acid or base and 50 ml. samples of the nutrient medium were charged into a plurality of 300 ml. shaker flasks. The shaker flasks were inoculated with an inoculating loop of cells from an agar plate containing homogeneous colonies of the microorganisms on the plate (the purity of the isolates was confirmed by microscopic examination). The isolates had been maintained on methanol (0.4% V/V) agar plates or on agar plates under an atmosphere of methane and air having a 1:1 V/V gas ratio which had been transferred every two weeks. For growth on methanol, the medium was supplemented with 0.4% methanol. For growth on methane, the gaseous phase of the inoculated flasks was replaced with a gas mixture comprised of methane and air having a ratio of 1:1 on a V/V basis. The inoculated flasks were sealed air-tight and were incubated on a rotary shaker of orbital radius 2.5 cm. at 250 rpm and at 30° C. for two days until turbidity in the medium had developed. The cells were harvested by centrifugation at 10,000×g. at 4° C. for 30 minutes. The cell pellet was washed twice with a 0.05 M phosphate buffer at a pH of 7.0 (containing 0.02 M MgCl2). The washed cells were then suspended in a 0.05 M phosphate buffer at pH 7.0.
(§2) A 0.5 ml. sample of each washed cell suspension (2 mg. cells) was put into 10 ml. vials at 4° C. which were sealed with a rubber cap. The gaseous phase of the vials was removed with vacuum and then was replaced with a gas mixture of the substrate reactant (i.e., alkane or secondary alcohol) and oxygen at a 1:1 V/V ratio. (In the case of a liquid substrate, i.e., secondary alcohol, 10 μl of the substrate was put in the 10 ml. vials). […] Samples of product (1-3 μl) were withdrawn periodically with a microsyringe and the products were analyzed by gas chromatography (ionization flame detector column).
(§3) The procedure in Example 1 was repeated wherein a plurality of the methane-utilizing methylotrophic microorganisms were each grown aerobically in a nutrient medium containing methane as the alcohol dehydrogenase enzyme inducer and as the major carbon and energy source for growth. The cells were harvested and washed as described in Example 1. The resting microbial cells of the induced methane-grown methane-utilizing methylotrophic microorganisms were then contacted with C3 -C6 secondary alcohols in a buffered solution by the procedure of Example 1.
(§4) In this example, the procedure in Example 1 was repeated except that a plurality of methane-utilizing methylotrophic microorganisms were each aerobically grown in a methanol-containing nutrient medium instead of a methane-containing medium. The nutrients in the medium were the same as indicated in Example 1 except that 0.4% V/V methanol was used as the alcohol dehydrogenase inducer and major source of carbon and energy for growth. Following growth, the cells were harvested and washed as described in Example 1.
(§5) The resting cells of the induced methanol-grown methylotrophic microorganisms were then contacted with secondary alcohols in a buffered solution by the procedure described in Example 1.

[2] = system: Methylococcus capsulatus, Texas (ATCC 19069); assay: as above; format: cell-based
Protocol: as §1, §2, §3, §4, §5

[3] = system: Methylocystis parvus OBBP (NRRL B-11,198); assay: as above; format: cell-based
Protocol: as §1, §2, §3, §4, §5

[4] = system: Methylomonas methanica S1 (NRRL B-11,199); assay: as above; format: cell-based
Protocol: as §1, §2, §3, §4, §5

[5] = system: Pseudomonas MS ATTC 25262 (Facultative); assay: as above; format: cell-based; details: methanol-grown cells
Protocol: as §1, §2
(§6) The procedure in Example 1 was repeated except that a plurality of methanol-utilizing methylotrophic microorganisms were each aerobically grown in a methanol-containing nutrient medium instead of a methane-containing medium. The nutrients in the medium were the same as indicated in Example 1 except that 0.4% V/V methanol was used as the alcohol dehydrogenase inducer and as the major carbon and energy source for growth. The cells were harvested and washed as described in Example 1. The resting microbial cells of the induced methanol-grown methanol-utilizing methylotrophic microorganisms were then contacted with C3 -C6 secondary alcohols in a buffered solution by the procedure of Example 1.

[6] = system: Pseudomonas sp. ATCC 21439 (Obligate); assay: as above; format: cell-based; details: methanol-grown cells
Protocol: as §1, §2, §6

[7] = system: secondary alcohol dehydrogenase (SADH), cell-free soluble extract; assay: oxidation of sec-alcohols by cell-free soluble extracts; format: biochemical, Pseudomonas sp. CRL 75 (ATCC 21,439); details: for Oxidation Rate, sec-alcohol to corresponding ketone: soluble crude extract, grown on methanol
Protocol: To prepare the cell-free secondary alcohol dehydrogenase (SADH) system, the washed cells were disrupted with a Wave Energy Ultrasonic Oscillator, Model W201 (Wave Energy System, Inc., Newtown, Pa.) and centrifuged at 20,000×g. for 30 minutes. […] The enzyme activity was measured with a fluorescence spectrophotometer (Perkin Elmer, Model MPF 44A) by following the formation of reduced NAD (EX 340 nm, Em 460 nm). The formation of reduced NAD was also followed with an absorption spectrophotometer at 340 nm. The assay system (3 ml.) contained: potassium phosphate buffer pH 7.0; 150 μmol.; NAD 1 μmol.; a given amount of enzyme preparation; and secondary alcohol 10 μmol. The reaction was started by the addition of substrate. One unit of enzyme activity represents the reduction of one μmole NAD per minute. Protein concentrations were determined by the Lowry method (J. Biol. Chem., 193: 255-275 (1951)).
The experimental procedure for the tests reported in Table VIII were as follows: 1 mg protein of crude extract was added into a 0.5 ml. 0.05 M phosphate buffer (pH 7.0) in a 10-ml. vial. […] The reaction mixture was incubated at 30° C. on a water bath. A 3 μl sample was removed with a syringe at 15 min. of incubation and was assayed with g.l.c. Catalytic activity was also assayed by fluorescence spectrophotometry.

[8] = system: Candida utilis ATCC 26387; assay: sec-alcohols to ketones by cell suspensions of yeasts; format: cell-based
[9] = system: cell extracts (NAD+-dependent secondary alcohol dehydrogenase); assay: sec-alcohols to methyl ketones by cell extracts of yeasts, gas chromatography; format: biochemical, Candida utilis ATCC 26,387; details: grown on methanol
Protocol: The supernantant liquid was termed the crude extracts.
The reaction mixture, in a total of 3.0 ml., contained 50 mM phosphate buffer, pH 7.0, 20 μmole NAD^+, cell extracts (1 ml.).
The ketone product obtained from oxidation of sec-alcohols by cell extracts of organisms were estimated by flame ionization gas chromatography by using a stainless steel column (12 ft. by 1/8 in.) packed with 10% Carbowax 20 M on 80/100 chromosorb w column (Perkin Elmer Corp., Norwalk, Conn.). The column temperature was maintained isothermally at 130° C. and the carrier gas flow was 30 ml. of helium per min. […] The protein content of cell-suspensions was determined by the Lowry et al. method.
NRRL Y-11,328 Torulopsis sp.

Row | Structure (SMILES) | Conversion Rates, sec-alcohol to corresponding ketone ([1]; cells grown on methane) [μmoles/hr/mg protein] | Conversion Rates, sec-alcohol to corresponding ketone ([1]; cells grown on methanol) [μn moles/hr/mg protein] | Conversion Rates, sec-alcohol to corresponding ketone ([2]; cells grown on methane) [μmoles/hr/mg protein] | Conversion Rates, sec-alcohol to corresponding ketone ([2]; cells grown on methanol) [μn moles/hr/mg protein] | Conversion Rates, sec-alcohol to corresponding ketone ([3]; cells grown on methane) [μmoles/hr/mg protein] | Conversion Rates, sec-alcohol to corresponding ketone ([3]; cells grown on methanol) [μn moles/hr/mg protein] | Conversion Rates, sec-alcohol to corresponding ketone ([4]; cells grown on methane) [μmoles/hr/mg protein] | Conversion Rates, sec-alcohol to corresponding ketone ([4]; cells grown on methanol) [μn moles/hr/mg protein] | Conversion Rates, sec-alcohol to corresponding ketone [5] [μmoles/hr/mg protein] | Conversion Rates, sec-alcohol to corresponding ketone [6] [μmoles/hr/mg protein] | Conversion Rate, 2-butanol to 2-butanone ([7]; Growth Substrate CH3 OH) [nmoles/min/mg protein] | Oxidation Rate, sec-alcohol to corresponding ketone [7] [nmole/min/mg protein] | Conversion Rate, sec-alcohol to corresponding ketone ([8]; Growth Substrate Ethanol) | Conversion Rate, sec-alcohol to corresponding ketone ([8]; Growth Substrate Methanol) | Conversion Rate, sec-alcohol to corresponding ketone ([8]; Growth Substrate Methylamine) | Conversion Rate, sec-alcohol to corresponding ketone ([8]; Growth Substrate Methylformate) | Conversion Rate, sec-alcohol to corresponding ketone ([8]; Growth Substrate Propylamine) | Conversion Rate, sec-alcohol to methyl ketone [9] [μmoles/hr/mg Protein]
1 | CCC(C)O (stereo not drawn) [2-Butanol, 2-butanol] | 0.84 | 1.5 | 0.60 | 0.70 | 1.1 | 1.0 | 0.39 | 0.40 | 3.5 | 4.7 | 25.0 | 25.0 | 5.2 μmoles/hr/mg of protein | 6.8 μmoles/hr/mg of protein | 5.0 μmoles/hr/mg of protein | 6.2 μmoles/hr/mg of protein | 4.2 μmoles/hr/mg of protein | 4.92
2 | CCCCC(C)O (stereo not drawn) [2-Hexanol, 2-hexanol] | 0.1 | 0.12 | 1.0 | 1.3 | 0.065 | 0.05 | 0.01 | 0.04 | 0.80 | 0.03 |  | 0 | 0.72 μmoles/hr/mg of protein | 0.8 μmoles/hr/mg of protein | 0.61 μmoles/hr/mg of protein | 0.75 μmoles/hr/mg of protein | 0.52 μmoles/hr/mg of protein | 0.45
3 | CCCC(C)O (stereo not drawn) [2-Pentanol, 2-pentanol] | 0.5 | 0.60 | 2.5 | 3.5 | 0.80 | 0.82 | 0.25 | 0.45 | 2.1 | 0.05 |  | 1.2 | 1.0 μmoles/hr/mg of protein | 1.5 μmoles/hr/mg of protein | 1.2 μmoles/hr/mg of protein | 1.3 μmoles/hr/mg of protein | 0.9 μmoles/hr/mg of protein | 0.82
4 | CC(C)O [2-Propanol, 2-propanol] | 0.15 | 0.52 | 0.80 | 0.75 | 0.32 | 0.25 | 0.40 | 0.35 | 0.80 | 7.4 |  | 21.2 | 5.2 μmoles/hr/mg of protein | 6.2 μmoles/hr/mg of protein | 5.0 μmoles/hr/mg of protein | 5.6 μmoles/hr/mg of protein | 4.2 μmoles/hr/mg of protein | 4.5
